# According to US8809627B2, “Plant isoflavone and isoflavanone O-methyltransferase genes” (The Samuel Roberts Noble Foundation, Inc., priority 2006, dated 2014):
# Entries after “also recorded” stand apart in the source; their conditions may differ.
# What was measured:
# Format in all cases: cell-based, Medicago truncatula
# MtIOMT1 = assay: Expression in elicitor-treated cell cultures: MtIOMT1 transcripts
# Description: (§1) The Affymetrix DNA chip contained 61,200 probe sets: 32,167 M. truncatula EST/mRNA-based and chloroplast gene-based probe sets (TIGR Gene Index version 8, January, 2005, 36,878 unique sequences); 18,733 M. truncatula IMGAG (International Medicago Genome Annotation Group) and phase 2/3 BAC prediction-based probe sets; 1,896 M. sativa EST/mRNA based probe sets; 8,305 Sinorhizobium meliloti gene prediction-based probe sets. For microarray experiments, total RNA was extracted from cell suspension cultures (Suzuki et al., 2005) using TRI Reagent (Molecular Research Center, Inc., Cincinnati, Ohio) and purified using the RNeasy® MinElute Cleanup Kit (Qiagen, Valencia, Calif.), according to the manufacturer's instructions. For all samples, 10 μg of total RNA was used for labeling reactions. Labeling, hybridization and data processing were performed according to the manufacturer's instruction (Affymetrix, Santa Clara, Calif.). For both YE and MeJA treatments, transcript profiles were examined at early (2 h) and late (24 h) time post-elicitation. For each sample point, two biological replicates were included, and the average signal intensities were used to calculate ratio of treatment to its corresponding control. […]
# MtIOMT2 = assay: RT-PCR analysis of elicitor-treated cell cultures: MtIOMT2
# Method: (§2) Infection of M. truncatula with Phoma medicaginis was performed as described (Deavours and Dixon, 2005). RNA was extracted from plant tissues using TRI Reagent (Molecular Research Center, Inc., Cincinnati, Ohio) according to the manufacturer's instructions. For RT-PCR, 2 μg of total RNA was transcribed into cDNA using Ready-To-Go RT-PCR beads (Amersham, Piscataway, N.J.) and oligo-dT primer. Two μl of cDNA was used in each PCR reaction (50 μl total) with Ex-Taq PCR reagents (Takara Bio Inc., Shiga, Japan) and the primers used are listed in Table 1 (SEQ ID NOs:16-29). PCR conditions were 94° C., 5 min; 25-32 cycles of 94° C. for 1 min, 55° C. for 1 min, 72° C. for 1 min; followed by 72° C. for 10 min. PCR products were resolved on a 1% (w/v) TAE-agarose gel and visualized with ethidium bromide.
# (§3) Differential induction of MtIOMTs in response to elicitation was also observed in M. truncatula cell cultures treated with yeast elicitor (YE) or methyl jasmonate (MeJA), which induce different global patterns of genetic re-programming (Suzuki et al., 2005). Changes in IOMT transcripts in elicited cells were inferred from microarray data generated utilizing Affymetrix Medicago genome arrays with 61K probe sets (www.affymetrix.com). […]
# MtIOMT4 = assay: Microarray analysis of elicitor-treated cell suspension cultures: MtIOMT4 transcripts; settings: 2 and 24 hours post-elicitation
# Description: as §1
# IFS genes = assay: Microarray analysis of elicitor-treated cell suspension cultures: IFS transcripts; settings: MeJA: 24 h after treatment
# Description: The Affymetrix DNA chip contained 61,200 probe sets: 32,167 M. truncatula EST/mRNA-based and chloroplast gene-based probe sets (TIGR Gene Index version 8, January, 2005, 36,878 unique sequences); 18,733 M. truncatula IMGAG (International Medicago Genome Annotation Group) and phase 2/3 BAC prediction-based probe sets; 1,896 M. sativa EST/mRNA based probe sets; 8,305 Sinorhizobium meliloti gene prediction-based probe sets. For microarray experiments, total RNA was extracted from cell suspension cultures (Suzuki et al., 2005) using TRI Reagent (Molecular Research Center, Inc., Cincinnati, Ohio) and purified using the RNeasy® MinElute Cleanup Kit (Qiagen, Valencia, Calif.), according to the manufacturer's instructions. For all samples, 10 μg of total RNA was used for labeling reactions. Labeling, hybridization and data processing were performed according to the manufacturer's instruction (Affymetrix, Santa Clara, Calif.). For both YE and MeJA treatments, transcript profiles were examined at early (2 h) and late (24 h) time post-elicitation. For each sample point, two biological replicates were included, and the average signal intensities were used to calculate ratio of treatment to its corresponding control.
# MtIOMTs 6-8 are annotated as encoding 2,7,4′-trihydroxyisoflavanone 4′-OMTs. […]
# MtIOMT6 [1] = assay: RT-PCR analysis of elicitor-treated cell cultures: MtIOMT6
# Method: as §2, §3
# MtIOMT6 [2] = assay: Microarray analysis of elicitor-treated cell suspension cultures: MtIOMT6 transcripts; settings: 2 and 24 hours post-elicitation
# Description: as §1
# MtIOMT7 = assay: Microarray analysis of elicitor-treated cell suspension cultures: MtIOMT7 transcripts; settings: 2 and 24 hours post-elicitation
# Description: as §1
compound,measurement,setting,value
"CC/C=C\CC1C(=O)CCC1CC(=O)OC (stereo not shown) [MeJA, methyl jasmonate]",Induction of MtIOMT1 transcripts,MtIOMT1,induced
same,Induction of MtIOMT2 transcripts,MtIOMT2,strong induction
same,"Induction of MtIOMT4 transcripts, treatment vs control",MtIOMT4,down-regulated
same,"Change of IFS gene transcripts, treatment vs control",IFS genes,down-regulated; also recorded: consistently reduced
same,Induction of MtIOMT6 transcripts,MtIOMT6 [1],strong induction
same,"Induction of MtIOMT6 transcripts, treatment vs control",MtIOMT6 [2],massively induced; also recorded: very strongly induced
same,"Induction of MtIOMT7 transcripts, treatment vs control",MtIOMT7,massively induced; also recorded: very strongly induced
